According to US6355799B1, “Substituted benzene compounds, process for their preparation, and herbicidal and defoliant compositions containing them” (ISK Americas Incorporated, priority 1997, dated 2002):

Legend:
Type in all cases: in vivo
[1] = system: redroot pigweed (Amaranthus retroflexus, AMARE); experiment: Pre-emerge test, greenhouse herbicide activity screening; conditions: pre-emerge, phytotoxicity rating 0-100 at 14 days after application
How it was run: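 Compounds in acetone were track-sprayed at 15-1000 g ai/ha (187 l/ha) on sandy loam pots: pre-emerge one day after seeding, post-emerge at 2-3 leaf stage with 0.25% v/v non-ionic surfactant. Phytotoxicity was rated 14 days later on a 0 (no damage) to 100 (complete death) scale.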

[2] = system: barnyardgrass (Echinochloa crus-galli, ECHCG); experiment: as above; conditions: pre-emerge, phytotoxicity rating 0-100 at 14 days after application
Source text: (§1) A standard greenhouse herbicide activity screening system was used to evaluate the herbicidal efficacy and crop safety of these test compounds. Seven broadleaf weed species including redroot pigweed (Amaranthus retroflexus, AMARE, velvetleaf (Abutilon theophrasti, ABUTH), sicklepod (Cassia obtusifolia, CASOB), ivyleaf morningglory (Ipomoea hederacea, IPOHE), lambsquarters (Chenopodium album, CHEAL), common ragweed (Ambrosia artemisizfolia L., AMBEL), and cocklebur (Xanthium strumarium, XANST) were used as test species. Four grass weed species including green foxtail (Setaria viridis, SETVI), barnyardgrass (Echinochloa crus-galli, ECHCG), johnsongrass (Sorghum halepense, SORHA), and large crabgrass (Digitaria sanguinalis, DIGSA) were also used. In addition, three crop species, field corn (Zea mays L., var. Dekalb 535, CORN), soybean (Glycine max L., var. Pella 86, SOY), and is upland rice (Oryza sp., var. Tebonnet, RICE) were included.
(§2) All plants were grown in 10 cm square plastic pots which were filled with a sandy loam soil mix. For pre-emerge tests, seeds were planted one day prior to application of the test compounds. For post-emerge tests, seeds were planted 8-21 days prior to the test to allow emergence and good foliage development prior to application of the test substances. At the time of the post-emerge application, plants of all species were usually at the 2-3 leaf stage of development.
(§3) All test compounds Were dissolved in acetone and applied to the test units in a volume of 187 l /ha. Test materials were applied at rates ranging from 15 g ai/ha to 1000 g ai/ha using a track sprayer equipped with a TJ8001E even flow flat fan spray nozzle. Plants were arranged on a shelf so that the top of the canopy (post-emerge) or top of the soil surface (pre-emerge) was 40-45 cm below the nozzle. Pressurized air was used to force the test solution through the nozzle as it was mechanically advanced (via electrically driven chain drive) over the top of all test plants/pots. This application simulates a typical commercial field herbicide application.
(§4) In the post-emerge test, a commercial non-ionic surfactant was also included (0.25% v/v) to enhance wetting of the leaf surfaces of target plants. Immediately after application, test units of the pre-emerge applications were watered at the soil surface to incorporate the test materials. Subsequently, these test units were bottom-watered. Post-emerge test units were always bottom-watered.
(§5) At 14 days after application of the test materials, phytotoxicity ratings were recorded. A rating scale of 0-100 was used as previously described in Research Methods in Weed Science, 2nd edition, B. Truelove, Ed., Southern Weed Science Society, Auburn University, Auburn, Ala. 1977. Briefly, “0” corresponds to no damage and “100” corresponds to complete death of all plants in the test unit. This scale was used both to determine efficacy against weed species and damage to crop species. Herbicide activity data for various compounds of this invention, which are shown by compound No. in Tables 1-8, are shown in Tables 11 and 12.

[3] = system: green foxtail (Setaria viridis, SETVI); experiment: as above; conditions: pre-emerge, phytotoxicity rating 0-100 at 14 days after application
Source text: as §1, §2, §3, §4, §5

[4] = system: ivyleaf morningglory (Ipomoea hederacea, IPOHE); experiment: as above; conditions: pre-emerge, phytotoxicity rating 0-100 at 14 days after application
Source text: as §1, §2, §3, §4, §5

[5] = system: lambsquarters (Chenopodium album, CHEAL); experiment: as above; conditions: pre-emerge, phytotoxicity rating 0-100 at 14 days after application
Source text: as §1, §2, §3, §4, §5

[6] = system: large crabgrass (Digitaria sanguinalis, DIGSA); experiment: as above; conditions: pre-emerge, phytotoxicity rating 0-100 at 14 days after application
Source text: as §1, §2, §3, §4, §5

[7] = system: sicklepod (Cassia obtusifolia, CASOB); experiment: as above; conditions: pre-emerge, phytotoxicity rating 0-100 at 14 days after application
Source text: as §1, §2, §3, §4, §5

[8] = system: velvetleaf (Abutilon theophrasti, ABUTH); experiment: as above; conditions: pre-emerge, phytotoxicity rating 0-100 at 14 days after application
Source text: as §1, §2, §3, §4, §5

[9] = system: field corn (Zea mays L., var. Dekalb 535, CORN); experiment: Pre-emerge test, crop safety; conditions: crop damage, pre-emerge, phytotoxicity rating 0-100 at 14 days after application
How it was run: (§6)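 Fourteen days after spraying, crop and weed injury was graded visually from 0, no effect, to 100, every plant dead. Test substances were dissolved in acetone and applied at 15–1000 g ai/ha with a flat-fan nozzle. Application was either pre-emergence, one day after sowing, or post-emergence at the 2–3 leaf stage.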

[10] = system: upland rice (Oryza sp., var. Tebonnet, RICE); experiment: Pre-emerge test, crop safety; conditions: crop damage, pre-emerge, phytotoxicity rating 0-100 at 14 days after application
How it was run: as §6

[11] = system: barnyardgrass (Echinochloa crus-galli, ECHCG); experiment: Post-emerge test, greenhouse herbicide activity screening; conditions: post-emerge, phytotoxicity rating 0-100 at 14 days after application
Source text: as §1, §2, §3, §4, §5

[12] = system: green foxtail (Setaria viridis, SETVI); experiment: as above; conditions: post-emerge, phytotoxicity rating 0-100 at 14 days after application
Source text: as §1, §2, §3, §4, §5

[13] = system: ivyleaf morningglory (Ipomoea hederacea, IPOHE); experiment: as above; conditions: post-emerge, phytotoxicity rating 0-100 at 14 days after application
Source text: as §1, §2, §3, §4, §5

[14] = system: lambsquarters (Chenopodium album, CHEAL); experiment: as above; conditions: post-emerge, phytotoxicity rating 0-100 at 14 days after application
Source text: as §1, §2, §3, §4, §5

[15] = system: large crabgrass (Digitaria sanguinalis, DIGSA); experiment: as above; conditions: post-emerge, phytotoxicity rating 0-100 at 14 days after application
Source text: as §1, §2, §3, §4, §5

[16] = system: redroot pigweed (Amaranthus retroflexus, AMARE); experiment: as above; conditions: post-emerge, phytotoxicity rating 0-100 at 14 days after application
Source text: as §1, §2, §3, §4, §5

[17] = system: sicklepod (Cassia obtusifolia, CASOB); experiment: as above; conditions: post-emerge, phytotoxicity rating 0-100 at 14 days after application
Source text: as §1, §2, §3, §4, §5

[18] = system: velvetleaf (Abutilon theophrasti, ABUTH); experiment: as above; conditions: post-emerge, phytotoxicity rating 0-100 at 14 days after application
Source text: as §1, §2, §3, §4, §5

[19] = system: field corn (Zea mays L., var. Dekalb 535, CORN); experiment: Post-emerge test, crop safety; conditions: post-emerge, crop damage rating 0-100 at 14 days after application
How it was run: (§7)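 Visual ratings on a 0-100 scale (0 no damage, 100 all plants dead) were taken at 14 days after treatment. Rates of 15-1000 g ai/ha in acetone, 187 l/ha, were sprayed onto soil one day after planting (pre-emerge) or onto 2-3 leaf plants with 0.25% v/v surfactant (post-emerge).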

[20] = system: upland rice (Oryza sp., var. Tebonnet, RICE); experiment: Post-emerge test, crop safety; conditions: post-emerge, crop damage rating 0-100 at 14 days after application
How it was run: as §7

Row | Structure (SMILES) | Pre-emerge Herbicidal Activity AMARE ([1]; rate 63 g ai/ha) | Pre-emerge Herbicidal Activity AMARE ([1]; rate 250 g ai/ha) | Pre-emerge Herbicidal Activity ECHCG ([2]; rate 63 g ai/ha) | Pre-emerge Herbicidal Activity ECHCG ([2]; rate 250 g ai/ha) | Pre-emerge Herbicidal Activity SETVI ([3]; rate 63 g ai/ha) | Pre-emerge Herbicidal Activity SETVI ([3]; rate 250 g ai/ha) | Pre-emerge Herbicidal Activity IPOHE ([4]; rate 63 g ai/ha) | Pre-emerge Herbicidal Activity IPOHE ([4]; rate 250 g ai/ha) | Pre-emerge Herbicidal Activity CHEAL ([5]; rate 63 g ai/ha) | Pre-emerge Herbicidal Activity CHEAL ([5]; rate 250 g ai/ha) | Pre-emerge Herbicidal Activity DIGSA ([6]; rate 63 g ai/ha) | Pre-emerge Herbicidal Activity DIGSA ([6]; rate 250 g ai/ha) | Pre-emerge Herbicidal Activity CASOB ([7]; rate 63 g ai/ha) | Pre-emerge Herbicidal Activity CASOB ([7]; rate 250 g ai/ha) | Pre-emerge Herbicidal Activity ABUTH ([8]; rate 63 g ai/ha) | Pre-emerge Herbicidal Activity ABUTH ([8]; rate 250 g ai/ha) | Pre-emerge Herbicidal Activity CORN ([9]; rate 63 g ai/ha) | Pre-emerge Herbicidal Activity CORN ([9]; rate 250 g ai/ha) | Pre-emerge Herbicidal Activity RICE ([10]; rate 63 g ai/ha) | Pre-emerge Herbicidal Activity RICE ([10]; rate 250 g ai/ha) | further results
1 | Cc1c(Cl)cc(F)c(-n2c(=O)cc(C(F)(F)F)n(C)c2=O)c1NC(=O)OCc1cccc([N+](=O)[O-])c1 [4-67] | 100 | 100 | 40 | 80 | 90 | 100 | 80 | 90 | 100 | 100 | 100 | 100 | 40 | 60 | 100 | 100 | 5 | 15 | 60 | 40 | Post-emerge Herbicidal Activity ECHCG ([11]; 63 g ai/ha): 40; Post-emerge Herbicidal Activity ECHCG ([11]; 250 g ai/ha): 70; Post-emerge Herbicidal Activity SETVI ([12]; 63 g ai/ha): 90; Post-emerge Herbicidal Activity SETVI ([12]; 250 g ai/ha): 90; Post-emerge Herbicidal Activity IPOHE ([13]; 63 g ai/ha): 100; Post-emerge Herbicidal Activity IPOHE ([13]; 250 g ai/ha): 100; Post-emerge Herbicidal Activity CHEAL ([14]; 63 g ai/ha): 100; Post-emerge Herbicidal Activity CHEAL ([14]; 250 g ai/ha): 100; Post-emerge Herbicidal Activity DIGSA ([15]; 63 g ai/ha): 70; Post-emerge Herbicidal Activity DIGSA ([15]; 250 g ai/ha): 80; Post-emerge Herbicidal Activity AMARE ([16]; 63 g ai/ha): 100; Post-emerge Herbicidal Activity AMARE ([16]; 250 g ai/ha): 100; Post-emerge Herbicidal Activity CASOB ([17]; 63 g ai/ha): 100; Post-emerge Herbicidal Activity CASOB ([17]; 250 g ai/ha): 100; Post-emerge Herbicidal Activity ABUTH ([18]; 63 g ai/ha): 100; Post-emerge Herbicidal Activity ABUTH ([18]; 250 g ai/ha): 100; Post-emerge Herbicidal Activity CORN ([19]; 63 g ai/ha): 55; Post-emerge Herbicidal Activity CORN ([19]; 250 g ai/ha): 70; Post-emerge Herbicidal Activity RICE ([20]; 63 g ai/ha): 50; Post-emerge Herbicidal Activity RICE ([20]; 250 g ai/ha): 70
2 | Cc1cccc(COC(=O)Nc2c(C)c(Cl)cc(F)c2-n2c(=O)cc(C(F)(F)F)n(C)c2=O)c1 [4-68] | 100 | 100 | 60 | 98 | 100 | 100 | 40 | 100 | 100 | 100 | 100 | 100 | 40 | 100 | 100 | 100 | 45 | 80 | 50 | 90 | Post-emerge Herbicidal Activity ECHCG ([11]; 63 g ai/ha): 90; Post-emerge Herbicidal Activity ECHCG ([11]; 250 g ai/ha): 98; Post-emerge Herbicidal Activity SETVI ([12]; 63 g ai/ha): 100; Post-emerge Herbicidal Activity SETVI ([12]; 250 g ai/ha): 100; Post-emerge Herbicidal Activity IPOHE ([13]; 63 g ai/ha): 100; Post-emerge Herbicidal Activity IPOHE ([13]; 250 g ai/ha): 100; Post-emerge Herbicidal Activity CHEAL ([14]; 63 g ai/ha): 100; Post-emerge Herbicidal Activity CHEAL ([14]; 250 g ai/ha): 100; Post-emerge Herbicidal Activity DIGSA ([15]; 63 g ai/ha): 75; Post-emerge Herbicidal Activity DIGSA ([15]; 250 g ai/ha): 90; Post-emerge Herbicidal Activity AMARE ([16]; 63 g ai/ha): 100; Post-emerge Herbicidal Activity AMARE ([16]; 250 g ai/ha): 100; Post-emerge Herbicidal Activity CASOB ([17]; 63 g ai/ha): 100; Post-emerge Herbicidal Activity CASOB ([17]; 250 g ai/ha): 100; Post-emerge Herbicidal Activity ABUTH ([18]; 63 g ai/ha): 100; Post-emerge Herbicidal Activity ABUTH ([18]; 250 g ai/ha): 100; Post-emerge Herbicidal Activity CORN ([19]; 63 g ai/ha): 95; Post-emerge Herbicidal Activity CORN ([19]; 250 g ai/ha): 100; Post-emerge Herbicidal Activity RICE ([20]; 63 g ai/ha): 60; Post-emerge Herbicidal Activity RICE ([20]; 250 g ai/ha): 80
